This note sets out measurements from ChEMBL document CHEMBL1150916, “Isolation of 2-(3'-bromo-4'-hydroxyphenol)ethanamine from the New Zealand ascidian Cnemidocarpa bicornuta” (J Nat Prod, 1998).

One assay has as its system Escherichia coli. The experiment in a line: Antibacterial activity against Escherichia coli. It counts as functional, organism-based.
The subject of the next assay is Bacillus subtilis. In words: Antibacterial activity against Bacillus subtilis. It counts as functional, organism-based.
The subject of the next assay is P388. The experiment in a line: Cytotoxicity against mouse P388 cells. Type of assay: functional, cell-based.
The next assay deals with Candida albicans. In words: Antifungal activity against Candida albicans. Type of assay: functional, organism-based.
For the next assay, the system named is Pseudomonas aeruginosa. The experiment in a line: Antibacterial activity against Pseudomonas aeruginosa. It counts as functional, organism-based.

Calls of active or inactive are those of the source. No cut-off for these calls is given here.

The term IC50 denotes the concentration at which inhibition is half-maximal.

Turning to `Cn1c(=N)c2nc[nH]c2n(C)c1=O`, the outcome in the assay on Escherichia coli, in the assay on Bacillus subtilis, in the assay with P388, in the assay on Candida albicans and in the assay with Pseudomonas aeruginosa was inactive.

Consider `NCCc1ccc(O)c(Br)c1`, for which the outcome in the assay with Escherichia coli, in the assay with Bacillus subtilis, in the assay with Candida albicans and with Pseudomonas aeruginosa was inactive. The compound further displayed an IC50 in the assay on P388 of 46 µM.
